# From patent publication US20090042879A1, “PHTHALAZINONE DERIVATIVES AND PHARMACEUTICAL COMPOSITIONS COMPRISING THE SAME” (NIPPON SHINYAKU CO., LTD., priority 2005, published 2009)
# How the values were obtained:
# TNCB-induced dermatitis = test: Dermatitis inhibitory effect in trinitrochlorobenzene (TNCB)-induced dermatitis model; assay type: in vivo, BALB/C mouse; conditions: 20 mg of 1.0% test compound/vaseline ointment on right pinna, five times in 1 week; pinna thickness 6 hours after last application
# Procedure: The dermatitis inhibitory effect of a test compound was investigated, using a trinitrochlorobenzene (TNCB)-induced dermatitis model (J. Invest. Dermatol., 105, 749-755, 1995, J. Immuno., 159, 2484-2491, 1997).
# 20 μL of 1% (w/v) TNCB/acetone solution was applied dropwise to both sides of the right pinna of a BALB/C mouse (♂, 8-week old), whereby the mouse was sensitized. From day 7 after the sensitization with TNCB, 1% TNCB/acetone solution was applied to both sides of the right pinna of the mouse every other day at 3 times/week, for 3 weeks in total. TNCB was applied for 2 weeks so as to fully induce dermatitis in the mouse, and then 20 mg of 1.0% test compound/vaseline ointment was applied to both sides of the right pinna five times in total for 1 week. At 6 hours after the last application, the thickness of the right pinna of the mouse was measured, and the effect of the test compound on dermatitis was thus evaluated. The inhibitory rate was calculated according to the following formula.
# Inhibitory Rate (%)={1−[mean thickness of inflamed pinna (right ear) of chemical-treated group−mean thickness of non-inflamed pinna (left ear) of the group]/[mean thickness of inflamed pinna (right ear) of diseased control group−mean thickness of non-inflamed pinna (left ear) of the group]}×100.
# [1] = test system: TNF-α production from rat whole blood cells stimulated with LPS; test: TNF-α production-suppressing activity in LPS-stimulated rat whole blood (ELISA); assay type: cell-based; conditions: 37° C. for 5 hours
# Procedure: The activity of a test compound to suppress TNF-α production from rat whole blood cells stimulated with LPS was evaluated in the manner mentioned below (J. Pharmacol. Exp. Ther., 302, 390-396, 2000).
# Under anesthesia with ether, a proper amount of blood was taken out from a 10-week male SD rat (♂, 10-week old) through its abdominal vein into a tube with EDTA (1.6 mg/mL) therein. A test compound was dissolved in dimethyl sulfoxide to prepare its 10^−2 M solution, which was diluted before use. 80 μL of rat blood was dispensed into each well of a 96-well plate, then 10 μL of the test compound solution was added thereto, and incubated at 37° C. in 5% CO2 for 30 minutes. The test compound and the blood were well mixed, then 10 μL of LPS (100 μg/mL) was added thereto, and incubated at 37° C. in 5% CO2 for 5 hours. Further, 100 μL of PBS was added to each well, then the plate was centrifuged at 4000 rpm for 2 minutes to collect the supernatant, and this was frozen and stored at −80° C. until its use for analysis. The amount of TNF-α production was measured through ELISA. IC50 for TNF-α production-suppressing activity was calculated as the test compound concentration for 50% inhibition of TNF-α production.
# As a control compound, the above-mentioned known compound (compound of general formula [A] in which R is a carboxyl group, cis-4-[4-(3,4-dimethoxyphenyl)-1-oxo-4a,5,8,8a-tetrahydro-1H-phthalazin-2-yl-methyl]benzoic acid (hereinafter referred to as control compound A)) was used.
# human recombinant PDE4D = target: T1, human recombinant PDE4D (Homo sapiens, UniProt Q08499); test: PDE4 inhibitory activity (cAMP hydrolysis, HitHunter cAMP II chemiluminescent kit); assay type: biochemical; conditions: 5 ng human recombinant PDE4D, 1 pmol cAMP, 30° C. for 30 minutes
# T1 construct: purchased ABNOVA H00005144-P01
# T1 sequence (Q08499 whole entry): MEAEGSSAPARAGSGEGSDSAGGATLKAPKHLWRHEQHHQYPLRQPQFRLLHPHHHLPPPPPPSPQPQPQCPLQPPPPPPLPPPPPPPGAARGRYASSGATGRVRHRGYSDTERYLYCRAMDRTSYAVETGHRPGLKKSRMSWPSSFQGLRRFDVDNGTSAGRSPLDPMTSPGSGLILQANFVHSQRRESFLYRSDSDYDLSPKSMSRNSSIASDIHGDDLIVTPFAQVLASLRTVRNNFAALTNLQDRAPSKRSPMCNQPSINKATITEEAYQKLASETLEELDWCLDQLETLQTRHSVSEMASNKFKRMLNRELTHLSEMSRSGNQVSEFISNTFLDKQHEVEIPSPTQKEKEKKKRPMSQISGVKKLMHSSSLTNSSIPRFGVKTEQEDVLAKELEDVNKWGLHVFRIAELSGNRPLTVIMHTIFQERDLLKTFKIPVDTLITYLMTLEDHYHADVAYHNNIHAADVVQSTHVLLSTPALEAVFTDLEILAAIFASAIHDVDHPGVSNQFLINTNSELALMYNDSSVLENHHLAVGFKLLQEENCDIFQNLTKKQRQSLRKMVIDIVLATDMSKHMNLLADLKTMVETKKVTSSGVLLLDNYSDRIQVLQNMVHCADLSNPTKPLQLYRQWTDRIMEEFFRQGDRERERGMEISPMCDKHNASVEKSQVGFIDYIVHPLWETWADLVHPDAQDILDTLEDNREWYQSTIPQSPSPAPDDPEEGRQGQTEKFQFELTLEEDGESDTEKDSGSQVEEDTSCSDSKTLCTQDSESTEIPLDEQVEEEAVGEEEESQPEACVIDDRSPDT
# Procedure: The activity of a test compound to inhibit human PDE4 was evaluated in the manner mentioned below.
# In the presence of a test compound (10^−7 to 10^−12 M), 1 pmol of cAMP was hydrolyzed through incubation with 5 ng of human recombinant PDE4D (ABNOVA's #H00005144-P01, Lot. FAK0050713Jb01, Taiwan) at 30° C. for 30 minutes. After the hydrolysis, the cAMP concentration was measured with a chemiluminescent kit, HitHunter cAMP II Assay Kit (by Amersham Bioscience).
# [2] = Metabolism by human liver microsome; assay type: in vitro ADME; conditions: NADPH producing system, 37° C., 10 minutes after start of incubation
# Procedure: The metabolic characteristics of a test compound were investigated, using human liver microsome.
# 400 μL of EP buffer (0.25 mM EDTA, 0.25 M potassium phosphate buffer, pH 7.4), 50 μL of 20 mg/mL human liver microsome fraction (by KAC), 350 μl of pure water and 100 μL of 1×10^−4 M test compound were put into a 1.5 mL microtube, and preincubated at 37° C. for 5 minutes. 100 μL of an NADPH producing system (containing 20 mg of NADP+, 70 mg of G6P, 40 units of G6PDH, 20 mg of magnesium chloride hexahydrate in 1 mL of pure water) was added to it, and incubated. To 100 μL of the sample taken at 10 minutes after the start of the incubation, added was the same amount of acetonitrile, and the reaction was thereby stopped. […] 20 μL of the supernatant was led into a high-performance liquid chromatography (Shimadzu'sSPD-10A, LC-10AS, CTO-10A, C-R6A), and the peak area of the test compound at 320 nm was measured, using a C18 column (Cadenza, CD-C18, 75×4.6 mm). […] Under the condition, the peak area of the test compound was measured. The metabolic rate was calculated as follows: 100 μL of acetonitrile was added to 90 μL of the above pre-incubated solution, and then 10 μl of the NADPH producing system was added thereto, and the resulting solution was analyzed for the peak area of the test compound. Based on it, the metabolic rate in 10 minutes after the incubation was calculated.
# [3] = Rattus norvegicus, Whole blood cell, 5 h
Structure (SMILES),"IC50 [1, 3] [µM]",IC50 (human recombinant PDE4D) [µM],IC50 ([1]; monomaleate) [µM],IC50 ([1]; Whole blood cell) [µM],Metabolic Rate (%) [2] [%],Dermatitis Inhibitory Percentage (%) (TNCB-induced dermatitis)
"COc1ccc(C2=NN(Cc3ccc(CN4CCOCC4)cc3)C(=O)C3CC=CCC23)cc1OC (stereo not drawn) [Example 1, cis-4-(3,4-Dimethoxyphenyl)-2-[4-(morpholin-4-ylmethyl)benzyl]-4a,5,8,8a-tetrahydro-2H-phthalazin-1-one]",0.0043,0.063,,,,31.2
"COc1ccc(C2=NN(Cc3ccc(C[N+]4([O-])CCOCC4)cc3)C(=O)[C@H]3CC=CC[C@@H]23)cc1OC (relative stereo) [Example 21, cis-(+)-4-{4-[4-(3,4-dimethoxyphenyl)-1-oxo-4a,5,8,8a-tetrahydro-1H-phthalazin-2-ylmethyl]benzyl}morpholine 4-oxide]",,,,0.012,,
"COc1ccc(C2=NN(Cc3ccc(N4CCOCC4)cc3)C(=O)[C@H]3CC=CC[C@@H]23)cc1OC (relative stereo) [Example 24, cis-4-(3,4-Dimethoxyphenyl)-2-(4-morpholin-4-ylbenzyl)-4a,5,8,8a-tetrahydro-2H-phthalazin-1-one]",,,,0.012,,
"COc1ccc(C2=NN(Cc3ccc(Cn4ccnc4)cc3)C(=O)[C@H]3CC=CC[C@@H]23)cc1OC (relative stereo) [Example 9, cis-4-(3,4-Dimethoxyphenyl)-2-[4-(imidazol-1-ylmethyl)benzyl]-4a,5,8,8a-tetrahydro-2H-phthalazin-1-one]",0.001,0.025,,,,
"COc1ccc(C2=NN(Cc3ccc(CN4CCC5(CC4)OCCO5)cc3)C(=O)[C@H]3CC=CC[C@@H]23)cc1OC (relative stereo) [Example 5, cis-4-(3,4-Dimethoxyphenyl)-2-[4-(1,4-dioxa-8-azaspiro[4,5]dec-8-ylmethyl)benzyl]-4a,5,8,8a-tetrahydro-2H-phthalazin-1-one]",,0.02,,0.199,,20.2
"COc1ccc(C2=NN(Cc3ccc(CN4CCOCC4)cc3)C(=O)C3CC=CCC23)cc1OC (single isomer, unassigned) [Example 2-1, cis-(+)-4-(3,4-Dimethoxyphenyl)-2-[4-(morpholin-4-ylmethyl)benzyl]-4a,5,8,8a-tetrahydro-2H-phthalazin-1-one]",,,,0.0024,61.5,38.5
"COc1ccc(C2=NN(Cc3ccc(CN4CCC(=O)CC4)cc3)C(=O)[C@H]3CC=CC[C@@H]23)cc1OC (relative stereo) [Example 6, cis-4-(3,4-Dimethoxyphenyl)-2-[4-(4-oxopiperidin-1-ylmethyl)benzyl]-4a,5,8,8a-tetrahydro-2H-phthalazin-1-one]",0.084,0.0013,,,,36.8
"COc1ccc(C2=NN(Cc3ccc(CN4CCOCC4)cc3)C(=O)[C@H]3CCCC[C@@H]23)cc1OC (relative stereo) [Example 13, cis-4-(3,4-Dimethoxyphenyl)-2-[4-(morpholin-4-ylmethyl)benzyl]-4a,5,6,7,8,8a-hexahydro-2H-phthalazin-1-one]",,0.005,,0.059,,33.2

# Second part, led by results:
"IC50 [1, 3] [µM]",IC50 (human recombinant PDE4D) [µM],IC50 ([1]; monomaleate) [µM],IC50 ([1]; Whole blood cell) [µM],Metabolic Rate (%) [2] [%],Structure (SMILES),Dermatitis Inhibitory Percentage (%) (TNCB-induced dermatitis)
,0.00079,0.0011,,,"COc1ccc(C2=NN(Cc3ccc(CN4CCOCC4)cc3)C(=O)C3CC=CCC23)cc1OC (single isomer, unassigned) [Example 2-2, cis-(+)-4-(3,4-Dimethoxyphenyl)-2-[4-(morpholin-4-ylmethyl)benzyl]-4a,5,8,8a-tetrahydro-2H-phthalazin-1-one monomaleate]",
,0.02,,0.107,,"COc1ccc(C2=NN(Cc3cccc(CN4CCOCC4)c3)C(=O)[C@H]3CC=CC[C@@H]23)cc1OC (relative stereo) [Example 10, cis-4-(3,4-Dimethoxyphenyl)-2-[3-(morpholin-4-ylmethyl)benzyl]-4a,5,8,8a-tetrahydro-2H-phthalazin-1-one]",31.1
,,,0.019,,"COc1ccc(C2=NN(Cc3cccc(CN4CCNC(=O)C4)c3)C(=O)[C@H]3CC=CC[C@@H]23)cc1OC (relative stereo) [Example 20, cis-(+)-4-(3,4-dimethoxyphenyl)-2-[3-(3-oxopiperazin-1-ylmethyl)benzyl]-4a,5,8,8a-tetrahydro-2H-phthalazin-1-one]",
,,,133,35.2,"COc1ccc(C2=NN(Cc3ccc(C(=O)O)cc3)C(=O)[C@H]3CC=CC[C@@H]23)cc1OC (relative stereo) [control compound A, cis-4-[4-(3,4-dimethoxyphenyl)-1-oxo-4a,5,8,8a-tetrahydro-1H-phthalazin-2-yl-methyl]benzoic acid, reference compound]",2.6
,,,0.0049,,"COc1ccc(C2=NN(Cc3ccc(CN4CCNC(=O)C4)cc3)C(=O)[C@H]3CC=CC[C@@H]23)cc1OC (relative stereo) [Example 16, cis-(+)-4-(3,4-Dimethoxyphenyl)-2-[4-(3-oxopiperazin-1-ylmethyl)benzyl]-4a,5,8,8a-tetrahydro-2H-phthalazin-1-one]",
